Measurements taken from ChEMBL document CHEMBL1133876, “alpha-Ketocarboxylic acid-based inhibitors of protein tyrosine phosphatases” (Bioorg Med Chem Lett, 2001).

Each molecule was assayed against Tyrosine-protein phosphatase YopH (Yersinia enterocolitica) (UniProt P15273) (assay: Inhibitory activity against Yersinia Protein-tyrosine phosphatase YopH).
Chain of Tyrosine-protein phosphatase YopH (Yersinia enterocolitica) (P15273 whole entry, looked up): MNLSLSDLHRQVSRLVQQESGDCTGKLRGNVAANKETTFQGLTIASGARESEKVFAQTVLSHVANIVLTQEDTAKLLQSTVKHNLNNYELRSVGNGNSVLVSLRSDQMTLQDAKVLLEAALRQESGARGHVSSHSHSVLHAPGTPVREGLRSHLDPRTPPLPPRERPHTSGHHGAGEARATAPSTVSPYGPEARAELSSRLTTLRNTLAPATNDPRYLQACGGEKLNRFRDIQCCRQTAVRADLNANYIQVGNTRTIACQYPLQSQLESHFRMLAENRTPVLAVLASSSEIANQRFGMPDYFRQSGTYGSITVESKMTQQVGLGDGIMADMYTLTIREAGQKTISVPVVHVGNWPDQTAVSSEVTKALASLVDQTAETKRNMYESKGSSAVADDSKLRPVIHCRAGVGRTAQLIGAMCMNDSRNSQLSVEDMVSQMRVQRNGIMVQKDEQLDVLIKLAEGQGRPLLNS

Structure (SMILES)	Ki
O=C(O)C(=O)c1ccco1	79 µM
O=P(O)(O)C(F)(F)c1ccc2ccccc2c1	179 µM

Biological target: Tyrosine-protein phosphatase YopH (Yersinia enterocolitica) (UniProt P15273)
Assay: as above
Remark: another data set of the same source

IC50	Structure (SMILES)
5500 µM	O=C(O)[C@H](O)c1ccccc1
950 µM	O=C(O)C(=O)c1cccs1
1500 µM	O=C(O)C(=O)c1ccccc1C(=O)O
1700 µM	COc1ccc(C(=O)C(=O)O)cc1OC
3300 µM	O=C(O)C(O)c1ccc2ccccc2c1 (stereo not drawn)
27 µM	O=C(O)C(O)c1ccco1 (stereo not drawn)
5700 µM	COc1ccc(C(O)C(=O)O)cc1 (stereo not drawn)
2300 µM	COC(=O)c1ccc(C(=O)C(=O)O)cc1
4900 µM	O=C(O)[C@@H](O)c1ccccc1
790 µM	O=C(O)C(=O)c1c(F)c(F)c(F)c(F)c1F
2700 µM	O=C(O)C(=O)c1ccc([N+](=O)[O-])cc1
190 µM	O=C(O)C(=O)c1ccc2ccccc2c1
3500 µM	O=C(O)Cc1ccc2ccccc2c1

Structure (SMILES)	IC50
COc1ccc(C(=O)C(=O)O)cc1	150 µM
O=C(O)C(=O)c1c[nH]c2ccccc12	390 µM
O=C(O)C(=O)c1ccccc1 [BENZOYL FORMIC ACID]	2700 µM
